# Assay results as given in patent publication US11883430B2, “CD38-NAD+ regulated metabolic axis in anti-tumor immunotherapy” (MUSC FOUNDATION FOR RESEARCH DEVELOPMENT, priority 2016, dated 2024).
# Tested on: NAD+
# Assay: Intracellular NAD+ level
# Format: cell-based, mouse
# Details: Th1/17 differentiated with 2DG 1 mM, DON 3 μM or FK866 10 nM (FIGS. 11K, 11L)
# Protocol: NAD^+, Sirt1 activity and Foxo1 activity assay: Intracellular NAD^+ level in T cells were measured spectrophotometrically following the manufacturer's protocol (Cayman chemical, Ann Arbor, MI). Using equal amounts of nuclear protein extracted by NE-PER Nuclear and Cytoplasmic Extraction Reagents (Thermo Fisher Scientific, Waltham, MA), Sirt1 activity (Universal Sirt1 Activity Assay Kit, Abcam, Cambridge, MA) and Foxo1 activity (FKHR transcription Factor Assay Kit, Active Motif, Carlsbad, CA) were determined as per manufacturer's protocol.
structure (smiles),measurement,value
"O=CC[C@@H](O)[C@H](O)[C@H](O)CO [2DG, 2-Deoxy-D-glucose]",NAD+ levels in Th1/17 cells,increased the NAD^+ level in Th1/17 cells
